These results are taken from US20190169134A1, “NOVEL CLASS OF QUINOLONE HETEROCYCLIC AROMATIC MOLECULES FOR CANCER TREATMENT” (RenoTarget Therapeutics, Inc., priority 2016, published 2019).

Usually pIC50 stands for the IC50 on a negative log10 scale, so that one unit is a factor of ten.

pIC50: −log10 of the molar value.

One assay relates to HCC827P. Briefly: Cell growth inhibition by SRB method. The settings on record: for pIC50: 72 hrs exposure, SRB. It counts as cell-based, human. The source says: (§1) Six human cancer cell lines have been used to evaluate effects of the compounds on proliferation of cancer cells. These cell lines include HCC827-P (or HCC827 parent cells), human non-small lung cancer cells, Parent NSCLC HCC827 cell line (which harbors EGFR gene amplification, Exon 19 (E19) deletion, and Exon 21 mutation (Wang, Ramakrishnan et al. 2010), and is an EGFRi sensitive cell line (Kim, Kim et al. 2010)); HCC827-TR16 (Tarceva-resistant HCC727 cell line), HCC827-OR16 (AZD9291-resistant HCC727 cell line), LNCaP (human prostate cancer cells—a hormonal-therapy sensitive cell line (Wang, Liu et al. 1997)); 22RV1 (human prostate cancer cells—a hormonal-therapy resistant cell line (Sramkoski, Pretlow et al. 1999)); and ACHN (human renal adenocarcinoma cells (Park, Jung et al. 2003)). LNCaP cells and 22RV1 cells were purchased from the American Type Culture Collection (Rockville, Md.) and others were gifts of friends.
(§2) To evaluate activities of new compounds on growth of EGFR-inhibitor-resistant cells, two EGFRi-resistant cell lines, i.e., HCC827-TR16 and HCC827-OR16 were established using a method described by Eberlein et al. (Eberlein, Stetson et al. 2015). […] Resistant cells were collected and stabilized after 5 weeks (cycle 5). […] The resistant cells were sorted using 96-well dishes by culturing cells with density of 0.1, 1, 10, and 100 cells per well.
(§3) All cell lines were maintained in RPMI-1640 (GIBCO, Gaithersburg, Md.) with 10% heat-inactivated bovine serum (FBS) (Wang, Ossowski et al. 2004).
(§4) Sulforhodamine B (SRB) was used to estimate cell growth as described previously (Skehan, Storeng et al. 1990). Briefly, cells grown exponentially were aliquoted into 96-well plates at a density of 2,500 to 5,000 cells/200 μl per well in RPMI 1640 medium containing 10% FBS. After twenty-four hours, the cells were exposed to indicated concentrations of tested compounds for 72 hrs or otherwise as indicated. The cells were then fixed with 10% trichloride acetic acid for 2 h at 4° C. The 10% trichloride acetic acid was removed, and the dishes were washed 5 times with tape water, and air-dried. The fixed and dried cells were then stained with 0.4% SRB in 1% acetic acid for 25 min, and the dishes were washed 5 times with 1% acetic acid and air-dried overnight. 200 μl of 10 mM of Tris buffer (pH 10.0) were added, and the dishes were rotated to completely dissolve the color. Absorbance at 570 nm, with a reference wavelength 690 nm, was measured on a 96-well microplate reader (SPECTRO Star^Nano, BMG Labtech). Mean, standard deviation (SD) and the percent of growth inhibition at each concentration point of the treatment were calculated. The percent of growth inhibition as defined as (1−T/C)×100 where T is the mean of the absorbance at 570 nm from the treatment, and C from control (drug vehicle only). IC50 was calculated using Sigma-plot software by regression of growth-concentration curve from each drug treatment.
For orientation: Sulforhodamine B stains cellular protein and so reports cell mass.

For the next assay, the system named is 22RV1. Description: Cell growth inhibition by SRB method. Type of assay: cell-based, human. The following applies: for growth inhibition of 22RV1 cells (in words): EGFR negative cell line, 72 hrs, FIG. 2 and 3; for pIC50: 72 hrs exposure, SRB.
Text: as §1, §3, §4

The next assay deals with HCC827OR16. Description: Cell growth inhibition by SRB method. It counts as cell-based, human. The following applies: AZD9291-resistant line, 72 hrs exposure.
Text: as §1, §2, §3, §4

In another assay the test system is ACHN. Briefly: Cell growth inhibition by SRB method. It counts as cell-based, human. The settings on record: 72 hrs exposure.
Text: as §1, §3, §4

In assay [1] the test system is HCC827 P and HCC827 TR cells. Briefly: Reno647/Carboplatin combination, median effects (SRB, CalcuSyn). It counts as cell-based, human. The procedure:
As described in Example 2.1. Two cell lines, HCC827-P and HCC827-TR (Tarceva-resistant HCC727 cells-an EGFRi resistant cell line with MET amplification) (Wang, Pursell et al. 2013) were used in the combination study. Exponentially growing HC[…] and HCC827-TR cells were seeded into 96-wells dishes at density of 3,000 cells per well. Twenty-four hours later, the cells were exposed concurrently to serial dilution of Reno647 or Carboplatin or Camptothecin alone or in combination at a ratio of 1:50 with Carboplatin or at ratio 1:1 with Camptothecin for 3 days. Reno647 were concurrently and sequentially with paclitaxel (Taxol) at ratio of 200:1 for 6 days. For sequential exposure, the cells were treated with Reno647 for 3 days, after removal of the drug containing medium, the cells were treated with Taxol for additional 3 days, or the cells were treated by Taxol first followed by the treatment with Reno 647. After incubation for 6 days, the cell growth was measured by SRB as described previously in Example 2.1 section, and the percentages of inhibition (1-T/C) % were calculated, and data were analyzed by a PC program, CalcuSyn, Biosoft (edited by T.-C. Chou, Memorial Sloan-Kettering Cancer Center, New York, and M. P. Hayball, at Cambridge, UK, 1996). The computer-calculated combination index (CI) was used to judge the outcomes of a combination: […] It has long been accepted that chemotherapy provided some benefit for patients with non-small-cell lung cancer (NSCLC) in terms of quality of life and symptomatology as well as modest improvements in survival. […] Cell growth was determined by SRB as described above.

The test system of the next assay is HCC827TR16. Briefly: Cell growth inhibition by SRB method. It counts as cell-based. The settings on record: Homo sapiens, Tarceva-resistant line, 72 hrs exposure.
Text: as §1, §2, §3, §4

The test system of a further assay is LNCaP. Briefly: Cell growth inhibition by SRB method. Type of assay: cell-based, human. The settings on record: for pIC50: Homo sapiens, LNCaP, 72 hrs exposure, SRB.
Text: as §1, §3, §4

For the next assay, the system named is tested cancer cell lines. Description: Cell growth inhibition by SRB method, tested cancer cell lines overall. The settings on record: data not provided. Type of assay: cell-based, human.
Text: as §1, §3, §4

For the compound `O=C(c1cc(Cc2n[nH]c(=O)c3ccccc23)ccc1F)N1CCN(C(=O)C2CC2)CC1` [AZD2281, reference compound], the “growth inhibition of HCC827P cells (in words)” value with HCC827P (EGFR positive cell line, 72 hrs, FIG. 3) was “no activity”. Also, in the assay on 22RV1, the “growth inhibition of 22RV1 cells (in words)” value was “significantly inhibited”.
As for “(3-Ethynyl-phenyl)-[6-(2-methoxy-ethoxy)-7-nitro-naphthalen-1-yl]-amine [Reno635]”, the pIC50 is under 5.30 in the assay on HCC827OR16, under 5.30 with HCC827P, 5.30 in the assay on 22RV1 and 5.43 in the assay with ACHN.
Turning to `N.N.O=C([O-])C1(C(=O)[O-])CCC1.[Pt+2]` [Carboplatin, reference compound], the “dose reduction in combination” value in assay [1] (Reno647:Carboplatin 1:50) is 2 fold. For the same compound, the “median effects, two drugs combined” value in assay [1] (Reno647:Carboplatin 1:50, concurrent, cell line not stated) was 3.38 µM. For the same compound, the “median effects, drug alone” value in assay [1] (single agent, cell line not stated) is 8.39 µM.
Consider `C=CC(=O)Nc1cc(Nc2nccc(-c3cn(C)c4ccccc34)n2)c(OC)cc1N(C)CCN(C)C` [AZD9291, reference compound], for which the pIC50 in the assay with HCC827OR16 (Homo sapiens) is 5.70; in the assay on HCC827P (Homo sapiens) it was over 6.70; with HCC827TR16, 5.92; with 22RV1 (Homo sapiens, 22Rv1) it was 6.19; in the assay with LNCaP, 5.70.
Consider `C#Cc1cccc(Nc2ncnc3cc(OCCOC)c(NC(=O)c4ccc(I)c([N+](=O)[O-])c4)cc23)c1` [Reno649, 4-Iodo-N-[4-(3-ethynyl-phenylamino)-7-(2-methoxy-ethoxy)-quinazolin-6-yl]-3-nitro-benzamide], for which the pIC50 in the assay on HCC827OR16 (Homo sapiens) is 5.74; in the assay on HCC827P (Homo sapiens), 6.70; in the assay on HCC827TR16, under 5.30; in the assay on 22RV1 (Homo sapiens, 22Rv1) it was 5.64; in the assay on LNCaP it was under 5.30. Besides, the “activities against all tested cancer cells lines compared with NK-2206 and MLN8237” value (shortened to “activities … compared with NK-2206 and MLN8237”) in the assay with tested cancer cell lines was “better activities”.
Turning to `C#Cc1cccc(Nc2ncnc3cc(OCCOC)c(NC(=O)c4ccc(Br)c([N+](=O)[O-])c4)cc23)c1` [Reno636, 4-Bromo-N-[4-(3-ethynyl-phenylamino)-7-(2-methoxy-ethoxy)-quinazolin-6-yl]-3-nitro-benzamide], the pIC50 was under 5.30 in the assay with HCC827OR16 (Homo sapiens); 6.70 with HCC827P (Homo sapiens); under 5.30 in the assay with HCC827TR16; under 5.30 in the assay with 22RV1 (Homo sapiens, 22Rv1); under 5.30 with ACHN (Homo sapiens, ACHN). Also, the “activities … compared with NK-2206 and MLN8237” value in the assay with tested cancer cell lines is reported as “better activities”.
In the case of `C#Cc1cccc(Nc2ncnc3cc(OCCOC)c(OCCOC)cc23)c1` [Tarceva, reference compound], the “IC50 HCC827OR16” value in the assay with HCC827OR16 was “almost unmeasurable”. The pIC50 is under 5.30 with HCC827OR16 (Homo sapiens); over 6.70 with HCC827P (Homo sapiens); under 5.30 in the assay on HCC827TR16; under 5.30 in the assay on 22RV1 (Homo sapiens, 22Rv1); 6.20 in the assay on ACHN (Homo sapiens, ACHN); under 5.30 with LNCaP. The “growth inhibition of 22RV1 cells (in words)” value with 22RV1 is on record as “relatively weak response”. In addition, the “growth inhibition of LNCaP cells (in words)” value in the assay with LNCaP (72 hrs, FIG. 2) is given as “relatively weak response”.
For the compound `C#Cc1cccc(Nc2ncnc3cc(OCCOC)c(NC(=O)c4ccc(Cl)c([N+](=O)[O-])c4)cc23)c1` [Reno648, 4-Chloro-N-[4-(3-ethynyl-phenylamino)-7-(2-methoxy-ethoxy)-quinazolin-6-yl]-3-nitro-benzamide], the pIC50 in the assay with HCC827OR16 (Homo sapiens) was under 5.30; in the assay with HCC827P (Homo sapiens) it was 6.82; with HCC827TR16 it was under 5.30; in the assay with 22RV1 (Homo sapiens, 22Rv1), under 5.30; with LNCaP, under 5.30. In addition, the “activities … compared with NK-2206 and MLN8237” value with tested cancer cell lines was “better activities”.
